According to patent publication US20100317647A1 (priority 2009, published 2010):

Biological target: human Cat S (Homo sapiens, UniProt P25774)
Test: Cathepsin enzyme inhibition assay (fluorogenic peptide substrate cleavage)
Type: biochemical
Conditions: human Cat S 1 nM; substrate Z-Val-Val-Arg-AMC 20 μM; pH 6.5; fluorescence over 20 minutes
In short: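 IC50 values derived from fluorescence increase (ex 360 nm, em 465 nm) monitored for 20 minutes after substrate addition. Enzyme held at 1 nM with 20 μM Z-Val-Val-Arg-AMC, in pH 6.5 potassium phosphate buffer containing DTT, EDTA and Triton X-100.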

human Cat S, sequence (P25774 115-331): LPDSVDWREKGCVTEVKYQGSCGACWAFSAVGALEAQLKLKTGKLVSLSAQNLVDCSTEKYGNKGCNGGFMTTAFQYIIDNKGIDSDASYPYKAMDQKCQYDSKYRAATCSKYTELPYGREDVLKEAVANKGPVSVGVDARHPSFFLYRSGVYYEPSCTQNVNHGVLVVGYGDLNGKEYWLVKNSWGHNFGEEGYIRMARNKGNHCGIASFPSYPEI

Structure (SMILES) | IC50
Cc1cc(-c2ccc(S(=O)(=O)[C@H]3C[C@@H](OC4CCC4)[C@H](C(=O)NC4(C#N)CC4)C3)c(C(F)(F)F)c2)ccn1 (racemic) [Example 210, (1R,2R,4R) and (1S,2S,4S)-2-Cyclobutoxy-4-[4-(2-methyl-pyridin-4-yl)-2-trifluoromethyl-benzenesulfonyl]-cyclopentanecarboxylic acid (1-cyano-cyclopropyl)-amide] | 0.21 nM
Cn1cc(-c2ccc(S(=O)(=O)[C@H]3C[C@@H](OC4CCC4)[C@H](C(=O)NC4(C#N)CC4)C3)c(C(F)(F)F)c2)cn1 (racemic) [Example 211, (1R,2R,4R) and (1S,2S,4S)-2-Cyclobutoxy-4-[4-(1-methyl-1H-pyrazol-4-yl)-2-trifluoromethyl-benzenesulfonyl]-cyclopentanecarboxylic acid (1-cyano-cyclopropyl)-amide] | 0.255 nM
Cc1cc(-c2ccc(S(=O)(=O)[C@H]3C[C@@H](OC4CCCC4)[C@H](C(=O)NC4(C#N)CC4)C3)c(C(F)(F)F)c2)ccn1 (racemic) [Example 212, (1R,2R,4R) and (1S,2S,4S)-2-Cyclopentyloxy-4-[4-(2-methyl-pyridin-4-yl)-2-trifluoromethyl-benzenesulfonyl]-cyclopentanecarboxylic acid (1-cyano-cyclopropyl)-amide] | 0.215 nM
Cn1cc(-c2ccc(S(=O)(=O)[C@H]3C[C@@H](OC4CCCC4)[C@H](C(=O)NC4(C#N)CC4)C3)c(C(F)(F)F)c2)cn1 (racemic) [Example 213, (1R,2R,4R) and (1S,2S,4S)-2-Cyclopentyloxy-4-[4-(1-methyl-1H-pyrazol-4-yl)-2-trifluoromethyl-benzenesulfonyl]-cyclopentanecarboxylic acid (1-cyano-cyclopropyl)-amide] | 0.16 nM
CNC(=O)Cn1cc(-c2ccc(S(=O)(=O)[C@H]3C[C@@H](OC)[C@H](C(=O)NC4(C#N)CC4)C3)c(C(F)(F)F)c2)cn1 (racemic) [Example 216, (1R,2R,4R) and (1S,2S,4S)-2-Methoxy-4-[4-(1-methylcarbamoylmethyl-1H-pyrazol-4-yl)-2-trifluoromethyl-benzenesulfonyl]-cyclopentanecarboxylic acid (1-cyano-cyclopropyl)-amide] | 1.6 nM
CO[C@@H]1C[C@H](S(=O)(=O)c2ccc(-c3cnn(CC(=O)N(C)C)c3)cc2C(F)(F)F)C[C@H]1C(=O)NC1(C#N)CC1 (racemic) [Example 218, (1R,2R,4R) and (1S,2S,4S)-4-[4-(1-Dimethylcarbamoylmethyl-1H-pyrazol-4-yl)-2-trifluoromethyl-benzenesulfonyl]-2-methoxy-cyclopentanecarboxylic acid (1-cyano-cyclopropyl)-amide] | 0.92 nM
N#CC1(NC(=O)[C@@H]2C[C@@H](S(=O)(=O)c3ccccc3C(F)(F)F)C[C@H]2OC2CCS(=O)(=O)CC2)CC1 (racemic) [Example 219, (1R,2R,4R) and (1S,2S,4S)-2-[(tetrahydro-1,1-dioxo-2H-thiopyran-4-yl)oxy]-4-(2-trifluoromethyl-benzenesulfonyl)-cyclopentanecarboxylic acid (1-cyano-cyclopropyl)-amide] | 6.77 nM
N#CC1(NC(=O)[C@@H]2C[C@@H](S(=O)(=O)c3ccccc3C(F)(F)F)C[C@H]2OC2CCC2)CC1 (racemic) [Example 220, (1R,2R,4R) and (1S,2S,4S)-2-Cyclobutoxy-4-(2-trifluoromethyl-benzenesulfonyl)-cyclopentanecarboxylic acid (1-cyano-cyclopropyl)-amide] | 3.6 nM
N#CC1(NC(=O)[C@@H]2C[C@@H](S(=O)(=O)c3ccccc3C(F)(F)F)C[C@H]2OC2CCCC2)CC1 (racemic) [Example 221, (1R,2R,4R) and (1S,2S,4S)-2-Cyclopentyloxy-4-(2-trifluoromethyl-benzenesulfonyl)-cyclopentanecarboxylic acid (1-cyano-cyclopropyl)-amide] | 8.35 nM
N#CC1(NC(=O)[C@@H]2C[C@@H](S(=O)(=O)c3ccccc3Cl)C[C@H]2OCc2ccc(Cl)cc2)CC1 (racemic) [Example 222, (1R,2R,4R) and (1S,2S,4S)-4-(2-Chloro-benzenesulfonyl)-2-(4-chloro-benzyloxy)-cyclopentanecarboxylic acid (1-cyano-cyclopropyl)-amide] | 5.8 nM
CCNC(=O)Cn1cc(-c2ccc(S(=O)(=O)[C@H]3C[C@@H](OC)[C@H](C(=O)NC4(C#N)CC4)C3)c(C(F)(F)F)c2)cn1 (racemic) [Example 223, (1R,2R,4R) and (1S,2S,4S)-4-[4-(1-Ethylcarbamoylmethyl-1H-pyrazol-4-yl)-2-trifluoromethyl-benzenesulfonyl]-2-methoxy-cyclopentanecarboxylic acid (1-cyano-cyclopropyl)-amide] | 0.31 nM
CC(C)N1CCN(c2ccc(S(=O)(=O)[C@H]3C[C@@H](OC4CCCC4)[C@H](C(=O)NC4(C#N)CC4)C3)c(C(F)(F)F)c2)CC1 (racemic) [Example 229, (1R,2R,4R) and (1S,2S,4S)-2-Cyclopentyloxy-4-[4-(4-isopropyl-piperazin-1-yl)-2-trifluoromethyl-benzenesulfonyl]-cyclopentanecarboxylic acid (1-cyano-cyclopropyl)-amide] | 0.007 nM
N#CC1(NC(=O)[C@@H]2C[C@@H](S(=O)(=O)c3ccc(N4CCN(CC(F)(F)F)CC4)cc3C(F)(F)F)C[C@H]2OC2CCCC2)CC1 (racemic) [Example 230, (1R,2R,4R) and (1S,2S,4S)-2-Cyclopentyloxy-4-{4-[4-(2,2,2-trifluoro-ethyl)-piperazin-1-yl]-2-trifluoromethyl-benzenesulfonyl}-cyclopentanecarboxylic acid (1-cyano-cyclopropyl)-amide] | 0.0275 nM
N#CC1(NC(=O)[C@@H]2C[C@@H](S(=O)(=O)c3ccccc3C(F)(F)F)C[C@H]2Oc2ccccc2)CC1 (racemic) [Example 231, (1R,2R,4R) and (1S,2S,4S)-2-Phenoxy-4-(2-trifluoromethyl-benzenesulfonyl)-cyclopentanecarboxylic acid (1-cyano-cyclopropyl)-amide] | 1.25 nM
N#CC1(NC(=O)[C@@H]2C[C@@H](S(=O)(=O)c3ccccc3C(F)(F)F)C[C@H]2OCc2ccc(Cl)cc2)CC1 (racemic) [Example 232, (1R,2R,4R) and (1S,2S,4S)-2-(4-Chloro-benzyloxy)-4-(2-trifluoromethyl-benzenesulfonyl)-cyclopentanecarboxylic acid (1-cyano-cyclopropyl)-amide] | 1.85 nM
N#CC1(NC(=O)[C@@H]2C[C@@H](S(=O)(=O)c3ccc(Cl)cc3Cl)C[C@H]2OCc2ccc(Cl)cc2)CC1 (racemic) [Example 233, (1R,2R,4R) and (1S,2S,4S)-2-(4-Chloro-benzyloxy)-4-(2,4-dichloro-benzenesulfonyl)-cyclopentanecarboxylic acid (1-cyano-cyclopropyl)-amide] | 10.5 nM

Second part, the compound after the results:

IC50 | Structure (SMILES)
0.713 nM | CO[C@@H]1C[C@H](S(=O)(=O)c2ccc(-c3cnn(CC(N)=O)c3)cc2C(F)(F)F)C[C@H]1C(=O)NC1(C#N)CC1 (racemic) [Example 194, (1R,2R,4R) and (1S,2S,4S)-4-[4-(1-Carbamoylmethyl-1H-pyrazol-4-yl)-2-trifluoromethyl-benzenesulfonyl]-2-methoxy-cyclopentanecarboxylic acid (1-cyano-cyclopropyl)-amide]
0.917 nM | N#CC1(NC(=O)[C@@H]2C[C@@H](S(=O)(=O)c3ccc(Br)cc3C(F)(F)F)C[C@H]2OC2CCCC2)CC1 (racemic) [Example 195, (1R,2R,4R) and (1S,2S,4S)-4-(4-Bromo-2-trifluoromethyl-benzenesulfonyl)-2-cyclopentyloxy-cyclopentanecarboxylic acid (1-cyano-cyclopropyl)-amide]
1.4 nM | CO[C@@H]1C[C@H](S(=O)(=O)c2ccc(N3CC(F)(F)C3)cc2C(F)(F)F)C[C@H]1C(=O)NC1(C#N)CC1 (racemic) [Example 206, (1R,2R,4R) and (1S,2S,4S)-4-[4-(3,3-Difluoro-azetidin-1-yl)-2-trifluoromethyl-benzenesulfonyl]-2-methoxy-cyclopentanecarboxylic acid (1-cyano-cyclopropyl)-amide]
0.895 nM | CO[C@@H]1C[C@H](S(=O)(=O)c2ccc(N3CCC(O)CC3)cc2C(F)(F)F)C[C@H]1C(=O)NC1(C#N)CC1 (racemic) [Example 207, (1R,2R,4R) and (1S,2S,4S)-4-[4-(4-Hydroxy-piperidin-1-yl)-2-trifluoromethyl-benzenesulfonyl]-2-methoxy-cyclopentanecarboxylic acid (1-cyano-cyclopropyl)-amide]
2.85 nM | CO[C@@H]1C[C@H](S(=O)(=O)c2ccc(-c3cnn(CC4(C)COC4)c3)cc2C(F)(F)F)C[C@H]1C(=O)NC1(C#N)CC1 (racemic) [Example 214, (1R,2R,4R) and (1S,2S,4S)-2-Methoxy-4-{4-[1-(3-methyl-oxetan-3-ylmethyl)-1H-pyrazol-4-yl]-2-trifluoromethyl-benzenesulfonyl}-cyclopentanecarboxylic acid (1-cyano-cyclopropyl)-amide]
6.6 nM | CO[C@@H]1C[C@H](S(=O)(=O)c2ccc(N3CCN(C4CC4)CC3)cc2C(F)(F)F)C[C@H]1C(=O)NC1(C#N)CC1 (racemic) [Example 215, (1R,2R,4R) and (1S,2S,4S)-4-[4-(4-Cyclopropyl-piperazin-1-yl)-2-trifluoromethyl-benzenesulfonyl]-2-methoxy-cyclopentanecarboxylic acid (1-cyano-cyclopropyl)-amide]
1.03 nM | CO[C@@H]1C[C@H](S(=O)(=O)c2ccc(N3CCN(C(C)=O)CC3)cc2C(F)(F)F)C[C@H]1C(=O)NC1(C#N)CC1 (racemic) [Example 217, (1R,2R,4R) and (1S,2S,4S)-4-[4-(4-Acetyl-piperazin-1-yl)-2-trifluoromethyl-benzenesulfonyl]-2-methoxy-cyclopentanecarboxylic acid (1-cyano-cyclopropyl)-amide]
